Assay results from publication PMC6004248 (Clinical cancer research : an official journal of the …, 2018).
“And” between values parts separate entries of the source, which are not always exact repeats. Equal values may be shown once. Read-outs that look alike come from different tables or passages of the source.

Assays:
[1] = tested on: ALK-positive NSCLC; conditions: crizotinib-refractory population; cited from earlier work
[2] = cited from earlier work; for patients who experienced diarrhea: in some studies
[3] = tested on: ALK-positive NSCLC; conditions: cited from earlier work
[4] = molecular target: EphA2 (Homo sapiens, UniProt P29317); test: Biochemical kinase assay
[5] = molecular target: ALK C1156Y mutant (Homo sapiens, UniProt Q9UM73, C1156Y); test: Biochemical kinase assay
[6] = tested on: ALK-positive NSCLC; test: Phase I/II trial, antitumor activity; assay type: in vivo, human
[7] = molecular target: wild-type ALK (Homo sapiens, UniProt Q9UM73); test: Biochemical kinase assay
[8] = molecular target: ALK variants; test: Biochemical kinase assay; conditions: read-out: in vitro IC50s, all evaluated ALK variants; wild-type ALK and 17 ALK variants
[9] = tested on: ALK-positive lung cancer cell lines; conditions: cited from earlier work
[10] = molecular target: TPM3-TRKA (Homo sapiens, UniProt P04629); test: Biochemical kinase assay
[11] = Phase I/II trial, plasma pharmacokinetics; assay type: in vivo, human
[12] = molecular target: T1, EphA1 (Homo sapiens, UniProt P21709); test: Biochemical kinase assay
T1 sequence (P21709 26-976): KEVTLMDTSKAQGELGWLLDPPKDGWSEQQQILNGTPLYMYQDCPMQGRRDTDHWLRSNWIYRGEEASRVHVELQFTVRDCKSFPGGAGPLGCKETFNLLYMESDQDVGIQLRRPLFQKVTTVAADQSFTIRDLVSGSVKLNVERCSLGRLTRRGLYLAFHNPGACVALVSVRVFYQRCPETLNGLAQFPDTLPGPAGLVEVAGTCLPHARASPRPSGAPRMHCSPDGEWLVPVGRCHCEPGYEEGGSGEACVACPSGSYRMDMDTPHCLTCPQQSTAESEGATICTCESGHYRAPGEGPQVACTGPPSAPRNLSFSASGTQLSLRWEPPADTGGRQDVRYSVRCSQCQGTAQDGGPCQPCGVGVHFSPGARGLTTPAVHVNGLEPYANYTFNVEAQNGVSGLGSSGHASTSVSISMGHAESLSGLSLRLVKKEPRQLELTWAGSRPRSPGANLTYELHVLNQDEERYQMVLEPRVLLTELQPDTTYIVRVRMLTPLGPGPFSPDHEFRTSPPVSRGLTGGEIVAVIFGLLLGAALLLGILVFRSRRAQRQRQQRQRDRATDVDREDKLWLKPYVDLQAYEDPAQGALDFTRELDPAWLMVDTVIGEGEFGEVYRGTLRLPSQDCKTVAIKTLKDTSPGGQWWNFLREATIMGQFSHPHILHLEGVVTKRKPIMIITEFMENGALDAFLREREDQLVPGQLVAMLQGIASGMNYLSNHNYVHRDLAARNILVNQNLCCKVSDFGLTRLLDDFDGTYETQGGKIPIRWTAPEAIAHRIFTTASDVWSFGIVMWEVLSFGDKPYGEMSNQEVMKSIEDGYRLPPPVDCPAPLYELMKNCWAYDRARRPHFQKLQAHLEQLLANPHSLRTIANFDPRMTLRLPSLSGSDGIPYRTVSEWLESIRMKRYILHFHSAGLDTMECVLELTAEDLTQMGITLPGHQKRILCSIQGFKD

[13] = molecular target: c-MET (Homo sapiens, UniProt P08581); test: Biochemical kinase assay
[14] = molecular target: ALK T1151 mutant (Homo sapiens, UniProt Q9UM73); test: Biochemical kinase assay
[15] = molecular target: ALK L1196M mutant (Homo sapiens, UniProt Q9UM73, L1196M); test: Biochemical kinase assay
[16] = tested on: H3122 lung cancer xenografts (EML4-ALK E13;A20 fusion); conditions: cited from earlier work
[17] = molecular target: GOPC-ROS1 (Homo sapiens, UniProt P08922); test: Biochemical kinase assay
[18] = Phase I/II trial, safety; assay type: in vivo
[19] = molecular target: T2, EphB1 (Homo sapiens, UniProt P54762); test: Biochemical kinase assay
T2 sequence (P54762 18-984): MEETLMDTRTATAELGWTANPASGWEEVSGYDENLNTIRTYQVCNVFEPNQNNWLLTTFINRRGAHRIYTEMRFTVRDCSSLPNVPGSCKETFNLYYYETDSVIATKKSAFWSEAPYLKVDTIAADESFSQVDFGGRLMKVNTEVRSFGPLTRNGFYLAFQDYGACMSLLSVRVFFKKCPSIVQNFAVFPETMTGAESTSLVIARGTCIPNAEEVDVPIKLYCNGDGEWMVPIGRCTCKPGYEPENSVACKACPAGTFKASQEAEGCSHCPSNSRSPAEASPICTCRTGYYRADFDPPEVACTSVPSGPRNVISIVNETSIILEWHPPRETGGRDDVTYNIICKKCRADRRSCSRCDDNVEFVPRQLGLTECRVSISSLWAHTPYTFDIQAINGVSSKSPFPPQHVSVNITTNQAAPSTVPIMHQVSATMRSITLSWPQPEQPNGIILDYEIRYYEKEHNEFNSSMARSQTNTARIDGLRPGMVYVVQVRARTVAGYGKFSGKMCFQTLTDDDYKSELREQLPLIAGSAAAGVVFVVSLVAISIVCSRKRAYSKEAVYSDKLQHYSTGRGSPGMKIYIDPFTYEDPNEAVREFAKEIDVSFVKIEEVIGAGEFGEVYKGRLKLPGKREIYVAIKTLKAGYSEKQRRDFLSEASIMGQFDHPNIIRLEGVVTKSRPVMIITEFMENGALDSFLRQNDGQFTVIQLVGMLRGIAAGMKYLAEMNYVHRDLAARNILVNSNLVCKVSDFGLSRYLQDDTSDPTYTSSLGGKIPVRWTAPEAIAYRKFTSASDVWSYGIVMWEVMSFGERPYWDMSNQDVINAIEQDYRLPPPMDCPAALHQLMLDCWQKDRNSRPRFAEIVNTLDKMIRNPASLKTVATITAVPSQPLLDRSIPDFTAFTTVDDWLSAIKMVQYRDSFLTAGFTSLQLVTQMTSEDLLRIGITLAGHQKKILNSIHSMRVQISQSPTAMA

[20] = molecular target: TRKC (Homo sapiens, UniProt Q16288); test: Biochemical kinase assay
[21] = molecular target: ALK S1206R mutant (Homo sapiens, UniProt Q9UM73, S1206R); test: Biochemical kinase assay
[22] = molecular target: ALK F1174 mutant (Homo sapiens, UniProt Q9UM73); test: Biochemical kinase assay
[23] = tested on: ALK fusions engineered to have point mutation L1196M; conditions: mutation associated with crizotinib resistance; cited from earlier work
[24] = tested on: ALK fusions engineered to have point mutation C1156Y; conditions: mutation associated with crizotinib resistance; cited from earlier work
[25] = ALK-positive efficacy evaluable patients, ≥200 mg, n=60
[26] = patients with baseline CNS target lesions, n=14, ≥200 mg
[27] = prior crizotinib and at least one second-generation ALK TKI, n=16

Sequence of ALK T1151 mutant (Q9UM73 1058-1620, stated change not applied): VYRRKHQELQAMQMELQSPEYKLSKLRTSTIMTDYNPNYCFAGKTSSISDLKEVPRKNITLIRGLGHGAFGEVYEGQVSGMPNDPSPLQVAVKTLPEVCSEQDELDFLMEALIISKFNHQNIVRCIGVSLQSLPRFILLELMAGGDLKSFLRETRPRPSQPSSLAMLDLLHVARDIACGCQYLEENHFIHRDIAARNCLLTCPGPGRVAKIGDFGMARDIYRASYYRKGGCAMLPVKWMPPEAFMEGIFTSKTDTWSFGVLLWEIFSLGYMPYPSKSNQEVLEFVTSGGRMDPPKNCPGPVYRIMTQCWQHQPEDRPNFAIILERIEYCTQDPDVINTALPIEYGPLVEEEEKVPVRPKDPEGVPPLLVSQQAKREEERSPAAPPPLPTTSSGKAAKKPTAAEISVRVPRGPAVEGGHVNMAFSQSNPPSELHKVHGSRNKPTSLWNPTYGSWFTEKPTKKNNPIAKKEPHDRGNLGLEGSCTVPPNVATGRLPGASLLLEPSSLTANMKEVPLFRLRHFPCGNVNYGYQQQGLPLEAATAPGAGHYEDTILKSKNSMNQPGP
Sequence of ALK F1174 mutant (Q9UM73 1058-1620, stated change not applied): as above
Sequence of c-MET (P08581 25-1390): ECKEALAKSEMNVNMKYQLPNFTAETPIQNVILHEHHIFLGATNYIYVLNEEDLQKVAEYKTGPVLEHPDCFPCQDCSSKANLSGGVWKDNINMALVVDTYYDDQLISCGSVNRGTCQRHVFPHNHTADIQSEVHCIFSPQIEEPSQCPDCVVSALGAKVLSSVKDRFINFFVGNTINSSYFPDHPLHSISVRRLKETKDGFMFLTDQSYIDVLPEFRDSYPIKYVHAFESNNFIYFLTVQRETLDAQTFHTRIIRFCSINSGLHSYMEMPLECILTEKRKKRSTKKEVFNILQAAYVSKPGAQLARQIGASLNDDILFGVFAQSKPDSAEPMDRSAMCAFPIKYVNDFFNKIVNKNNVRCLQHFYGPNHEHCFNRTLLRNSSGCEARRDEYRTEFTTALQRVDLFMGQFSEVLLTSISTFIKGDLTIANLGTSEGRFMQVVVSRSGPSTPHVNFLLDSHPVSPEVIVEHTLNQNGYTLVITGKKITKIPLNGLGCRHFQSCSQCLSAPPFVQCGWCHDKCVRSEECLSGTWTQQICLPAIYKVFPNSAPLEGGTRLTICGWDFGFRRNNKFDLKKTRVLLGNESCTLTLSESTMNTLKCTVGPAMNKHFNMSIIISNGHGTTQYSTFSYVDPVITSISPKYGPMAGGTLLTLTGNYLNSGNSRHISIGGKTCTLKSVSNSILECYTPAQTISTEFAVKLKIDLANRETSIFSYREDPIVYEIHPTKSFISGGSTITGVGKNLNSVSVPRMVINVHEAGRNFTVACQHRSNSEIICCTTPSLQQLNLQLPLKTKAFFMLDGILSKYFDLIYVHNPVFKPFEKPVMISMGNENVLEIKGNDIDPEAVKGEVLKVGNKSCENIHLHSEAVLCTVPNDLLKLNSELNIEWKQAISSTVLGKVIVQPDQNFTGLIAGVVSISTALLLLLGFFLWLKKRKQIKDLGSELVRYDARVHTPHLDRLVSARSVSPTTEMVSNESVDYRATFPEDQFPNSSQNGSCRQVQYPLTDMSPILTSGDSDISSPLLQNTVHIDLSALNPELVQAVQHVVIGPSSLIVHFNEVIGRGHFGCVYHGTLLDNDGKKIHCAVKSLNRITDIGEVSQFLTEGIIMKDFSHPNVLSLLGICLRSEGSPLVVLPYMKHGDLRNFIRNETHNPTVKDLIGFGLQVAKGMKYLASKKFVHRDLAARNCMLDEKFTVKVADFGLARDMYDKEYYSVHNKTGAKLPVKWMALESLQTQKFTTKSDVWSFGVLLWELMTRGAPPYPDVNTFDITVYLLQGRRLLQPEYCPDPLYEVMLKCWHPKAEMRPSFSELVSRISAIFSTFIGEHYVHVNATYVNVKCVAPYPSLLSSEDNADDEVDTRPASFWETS
Sequence of ALK C1156Y mutant (Q9UM73 19-1620 C1156Y): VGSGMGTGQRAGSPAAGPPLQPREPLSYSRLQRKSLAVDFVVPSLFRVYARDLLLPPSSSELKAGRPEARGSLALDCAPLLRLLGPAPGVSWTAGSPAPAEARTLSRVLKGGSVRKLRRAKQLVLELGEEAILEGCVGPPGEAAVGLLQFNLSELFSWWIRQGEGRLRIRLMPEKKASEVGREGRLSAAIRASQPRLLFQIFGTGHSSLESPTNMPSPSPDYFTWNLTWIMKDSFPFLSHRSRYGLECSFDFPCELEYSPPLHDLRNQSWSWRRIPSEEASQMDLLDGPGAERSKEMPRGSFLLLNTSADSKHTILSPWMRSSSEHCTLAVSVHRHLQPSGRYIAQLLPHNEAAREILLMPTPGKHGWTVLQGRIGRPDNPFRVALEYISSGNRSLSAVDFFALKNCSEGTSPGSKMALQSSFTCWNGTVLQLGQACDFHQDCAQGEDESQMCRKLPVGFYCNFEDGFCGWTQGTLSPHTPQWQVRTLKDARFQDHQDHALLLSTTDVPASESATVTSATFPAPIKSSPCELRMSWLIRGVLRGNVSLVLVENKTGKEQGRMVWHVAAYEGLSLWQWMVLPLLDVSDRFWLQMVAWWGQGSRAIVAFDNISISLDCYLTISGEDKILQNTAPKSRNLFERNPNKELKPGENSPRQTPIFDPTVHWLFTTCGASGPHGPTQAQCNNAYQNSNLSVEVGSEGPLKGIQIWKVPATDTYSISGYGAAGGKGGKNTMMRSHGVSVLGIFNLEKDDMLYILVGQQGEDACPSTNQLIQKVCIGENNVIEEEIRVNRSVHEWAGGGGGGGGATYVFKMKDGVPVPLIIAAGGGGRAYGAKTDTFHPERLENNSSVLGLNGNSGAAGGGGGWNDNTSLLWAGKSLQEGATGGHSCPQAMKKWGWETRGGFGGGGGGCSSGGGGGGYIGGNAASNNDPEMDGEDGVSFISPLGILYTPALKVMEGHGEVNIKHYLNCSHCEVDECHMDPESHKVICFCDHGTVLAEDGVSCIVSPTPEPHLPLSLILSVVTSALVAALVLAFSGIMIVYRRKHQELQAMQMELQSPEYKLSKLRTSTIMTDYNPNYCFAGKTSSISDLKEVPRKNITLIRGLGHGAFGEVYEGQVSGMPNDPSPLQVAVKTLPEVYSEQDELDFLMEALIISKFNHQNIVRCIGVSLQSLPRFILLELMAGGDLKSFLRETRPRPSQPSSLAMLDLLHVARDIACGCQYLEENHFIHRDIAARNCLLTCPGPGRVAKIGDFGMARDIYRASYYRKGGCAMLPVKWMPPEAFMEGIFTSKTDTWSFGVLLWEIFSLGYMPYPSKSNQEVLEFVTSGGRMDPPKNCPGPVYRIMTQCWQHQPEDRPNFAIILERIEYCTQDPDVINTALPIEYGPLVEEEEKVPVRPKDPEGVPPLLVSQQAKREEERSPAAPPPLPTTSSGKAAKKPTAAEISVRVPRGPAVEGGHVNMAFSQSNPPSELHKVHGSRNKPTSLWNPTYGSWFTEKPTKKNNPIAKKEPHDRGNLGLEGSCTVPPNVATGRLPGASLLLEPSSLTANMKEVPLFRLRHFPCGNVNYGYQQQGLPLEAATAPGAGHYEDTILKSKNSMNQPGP
Sequence of TPM3-TRKA (P04629 399-796): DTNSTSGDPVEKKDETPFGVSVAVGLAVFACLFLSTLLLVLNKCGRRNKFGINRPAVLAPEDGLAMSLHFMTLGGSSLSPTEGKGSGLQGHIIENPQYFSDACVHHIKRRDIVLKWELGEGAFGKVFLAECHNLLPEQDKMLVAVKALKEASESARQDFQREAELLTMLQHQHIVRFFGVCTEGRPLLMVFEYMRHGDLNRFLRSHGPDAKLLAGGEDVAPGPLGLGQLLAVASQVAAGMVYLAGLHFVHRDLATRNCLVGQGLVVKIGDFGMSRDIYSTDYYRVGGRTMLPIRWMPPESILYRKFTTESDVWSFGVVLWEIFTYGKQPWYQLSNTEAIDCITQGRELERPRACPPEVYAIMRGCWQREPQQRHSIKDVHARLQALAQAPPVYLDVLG
Sequence of TPM3-TRKA (P06753 2-258 partner): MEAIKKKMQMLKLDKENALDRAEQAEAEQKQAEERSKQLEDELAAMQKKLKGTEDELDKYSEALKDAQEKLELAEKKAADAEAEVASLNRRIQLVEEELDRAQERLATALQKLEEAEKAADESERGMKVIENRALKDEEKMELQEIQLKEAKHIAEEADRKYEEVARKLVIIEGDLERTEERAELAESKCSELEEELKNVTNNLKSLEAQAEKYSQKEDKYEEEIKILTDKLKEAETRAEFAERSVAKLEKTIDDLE
Sequence of GOPC-ROS1 (P08922 1881-2347, other chains not shown): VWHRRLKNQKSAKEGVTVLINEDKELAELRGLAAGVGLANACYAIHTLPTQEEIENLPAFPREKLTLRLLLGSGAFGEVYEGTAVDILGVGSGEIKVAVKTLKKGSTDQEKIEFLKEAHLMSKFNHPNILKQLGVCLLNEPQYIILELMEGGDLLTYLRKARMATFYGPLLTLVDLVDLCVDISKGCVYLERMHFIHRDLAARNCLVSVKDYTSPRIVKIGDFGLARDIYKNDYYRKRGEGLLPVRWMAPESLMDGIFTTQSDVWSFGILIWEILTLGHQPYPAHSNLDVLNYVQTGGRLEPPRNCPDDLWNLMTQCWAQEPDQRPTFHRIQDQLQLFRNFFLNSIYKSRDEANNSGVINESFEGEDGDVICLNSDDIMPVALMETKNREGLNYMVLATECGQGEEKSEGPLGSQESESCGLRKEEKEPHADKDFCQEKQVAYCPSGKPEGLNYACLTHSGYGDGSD
Sequence of ALK S1206R mutant (Q9UM73 19-1620 S1206R): as the sequence (Q9UM73 19-1620 C1156Y) above, with Y1138C, S1188R counted along it
Sequence of ALK L1196M mutant (Q9UM73 19-1620 L1196M): as the sequence (Q9UM73 19-1620 C1156Y) above, with Y1138C, L1178M counted along it
Sequence of wild-type ALK (Q9UM73 19-1620): as the sequence (Q9UM73 19-1620 C1156Y) above, with Y1138C counted along it

COc1cc(N2CCC(N3CCN(C)CC3)CC2)ccc1Nc1ncc(Cl)c(Nc2ccccc2P(C)(C)=O)n1 [brigatinib]
RR [1]: 54%
median PFS [1]: 12.9 months
patients who experienced diarrhea [2]: 41%

Cc1cc(Nc2ncc(Cl)c(Nc3ccccc3S(=O)(=O)C(C)C)n2)c(OC(C)C)cc1C1CCNCC1 [ceritinib]
patients discontinuing therapy [3]: 10%
patients who experienced a SAE [3]: 38%
patients with a dose interruption [3]: 66%
RR ([3]; first line): 73%
intracranial response ([3]; first line): 57%
median PFS ([3]; first line): 16.6 months
patients with vomiting [2]: majority of patients
patients who experienced diarrhea [2]: 75%

C[C@@H]1CN(C(=O)c2ccc(NC(=O)c3cc(O[C@H](C)c4c(Cl)ccc(F)c4Cl)c(N)nn3)cc2)C[C@H](C)N1 [ensartinib]
IC50 [4]: 1 to 10 nM
IC50 [5]: < 0.4 nM
median DOR ([6]; ALK TKI naïve patients, n=12): 24.4 months
median PFS ([6]; ALK TKI-naïve patients): 26.2 months
disease control rate (DCR) ([6]; ALK TKI-naïve patients, n=15): 86.7%
response rate (RR) ([6]; ALK TKI-naïve patients, n=15): 80%
disease control rate (DCR) [6, 25]: 81.7%
patients with tumor regression [6, 25]: 80%
median DOR ([6]; ALK-positive evaluable patients, n=35): 12.8 months
median PFS ([6]; ALK-positive evaluable patients, ≥200 mg): 9.2 months
median DOR ([6]; crizotinib and a second-generation ALK TKI, n=4): 4.4 months
intracranial DCR [6, 26]: 92.9%
intracranial response rate [6, 26]: 64% and 64.3%
patients with intracranial tumor regression [6, 26]: 78.6%
disease control rate (DCR) [6, 27]: 50.0%
response rate (RR) [6, 27]: 25%
median PFS ([6]; prior crizotinib only): 9.0 months
median DOR ([6]; prior crizotinib only, n=19): 7.4 months
disease control rate (DCR) ([6]; prior crizotinib only, n=29): 96.6%
response rate (RR) ([6]; prior crizotinib only, n=29): 69%
median intracranial DOR ([6]; responding patients with CNS target lesions at baseline, n=9, ≥200 mg): 5.7 months
IC50 [7]: < 0.4 nM
IC50 [8]: < 4 nM
potency relative to crizotinib at inhibiting growth [9]: 10 fold
IC50 [10]: < 1 nM
impact of food on absorption ([11]; 225 mg, food consumed within 30 minutes after taking ensartinib): minimal impact
increase in mean day 22 AUC from 225 to 250 mg ([11]; fasted, 11% increase in dose): 36%
dose proportionality of mean day 22 Cmax and AUC ([11]; fasted, 200-225 mg): slightly more than dose proportionally
dose proportionality of mean day 22 Cmax and AUC ([11]; fasted, 225-250 mg): significantly more than dose proportionally
dose proportionality of mean day 22 Cmax and AUC ([11]; human, in vivo): increased dose proportionally
IC50 [12]: 1 to 10 nM
IC50 [13]: 1 to 10 nM
IC50 [14]: < 0.4 nM
IC50 [15]: < 0.4 nM
antitumor activity in xenografts [16]: potent antitumor activity
IC50 [17]: < 1 nM
maximum tolerated dose ([18]; 25-250 mg once daily): not reached
deaths related to ensartinib ([18]; as considered by the sponsor): no deaths
Constipation, All grades ([18]; human, in vivo): 11 (11%)
Constipation, Grade ≥3 ([18]; human, in vivo): 0
Decreased Appetite, All grades ([18]; human, in vivo): 18 (19%)
Decreased Appetite, Grade ≥3 ([18]; human, in vivo): 1 (1%)
Diarrhea, All grades ([18]; human, in vivo): 11 (11%)
Diarrhea, Grade ≥3 ([18]; human, in vivo): 0
Dry Skin, All grades ([18]; human, in vivo): 14 (14%)
Dry Skin, Grade ≥3 ([18]; human, in vivo): 1 (1%)
Edema, All grades ([18]; human, in vivo): 15 (15%)
Edema, Grade ≥3 ([18]; human, in vivo): 1 (1%)
Elevated aspartate aminotransferase, All grades ([18]; human, in vivo): 12 (12%)
Elevated aspartate aminotransferase, Grade ≥3 ([18]; human, in vivo): 1 (1%)
Fatigue, All grades ([18]; human, in vivo): 21 (22%)
Fatigue, Grade ≥3 ([18]; human, in vivo): 2 (2%)
Nausea, All grades ([18]; human, in vivo): 35 (36%)
Nausea, Grade ≥3 ([18]; human, in vivo): 1 (1%)
Pruritus, All grades ([18]; human, in vivo): 27 (28%)
Pruritus, Grade ≥3 ([18]; human, in vivo): 5 (5%)
Rash, All grades ([18]; human, in vivo): 54 (56%)
Rash, Grade ≥3 ([18]; human, in vivo): 12 (12%)
Vomiting, All grades ([18]; human, in vivo): 25 (26%)
Vomiting, Grade ≥3 ([18]; human, in vivo): 1 (1%)
drug-related diarrhea ([18]; human, in vivo): 11%
patients permanently discontinued due to related toxicity ([18]; human, in vivo): 5.2%
patients requiring at least one dose reduction due to treatment-related toxicity ([18]; human, in vivo): 25%
patients with treatment-related Grade 3-4 AEs ([18]; human, in vivo): 23%
treatment-related fatigue ([18]; human, in vivo): 22%
treatment-related nausea ([18]; human, in vivo): 36%
treatment-related pruritus ([18]; human, in vivo): 28%
treatment-related vomiting ([18]; human, in vivo): 26%
recommended phase II dose (RP2D) ([18]; human, in vivo, 28 days): 225 mg
patients who died while on study ([18]; n=97): Five
IC50 [19]: 1 to 10 nM
IC50 [20]: < 1 nM
IC50 [21]: < 0.4 nM
IC50 [22]: < 0.4 nM
inhibition of ALK fusion with L1196M [23]: potently inhibited
inhibition of ALK fusion with C1156Y [24]: potently inhibited
